The record followed here is ChEMBL document CHEMBL1255488, “Semimechanistic pharmacokinetic-pharmacodynamic model with adaptation development for time-kill experiments of ciprofloxacin against Pseudomonas aeruginosa” (2010).

Test [1] relates to Pseudomonas aeruginosa. The test is described as follows: microbe, parasite or virus in culture. The following applies: PAO1.
Description: Antimicrobial activity against 0.12 ug/ml compound pre-treated Pseudomonas aeruginosa PAO1 in presence of 0.25 ug/ml of compound during plating experiment by microdilution method in presence of 40 ug/ml efflux-pump inhibitor PAbetaN
Test [2] has as its system Pseudomonas aeruginosa. As to the kind of experiment: microbe, parasite or virus in culture. Conditions: PAO1. This is another data set of the same source.
Description: Antimicrobial activity against 0.12 ug/ml compound pre-treated Pseudomonas aeruginosa PAO1 in presence of 2 ug/ml of compound during plating experiment by microdilution method in presence of 40 ug/ml efflux-pump inhibitor PAbetaN
Test [3] concerns Pseudomonas aeruginosa. The test is described as follows: microbe, parasite or virus in culture. Conditions: PAO1. The source holds these as a separate data set.
Description: Antimicrobial activity against 0.25 ug/ml compound pre-treated Pseudomonas aeruginosa PAO1 in presence of 0.5 ug/ml of compound during plating experiment by microdilution method in presence of 40 ug/ml efflux-pump inhibitor PAbetaN
Test [4] concerns Pseudomonas aeruginosa. As to the kind of experiment: microbe, parasite or virus in culture. Conditions: PAO1. This is another data set of the same source.
Description: Antimicrobial activity against 0.25 ug/ml compound pre-treated Pseudomonas aeruginosa PAO1 in presence of 0.25 ug/ml of compound during plating experiment by microdilution method in presence of 40 ug/ml efflux-pump inhibitor PAbetaN
Test [5] relates to Pseudomonas aeruginosa. As to the kind of experiment: microbe, parasite or virus in culture. Conditions: PAO1. This is another data set of the same source.
Description: Antimicrobial activity against 0.25 ug/ml compound pre-treated Pseudomonas aeruginosa PAO1 in presence of 1 ug/ml of compound during plating experiment by microdilution method
In test [6] the test system is Pseudomonas aeruginosa. The test is described as follows: Antimicrobial activity against Pseudomonas aeruginosa PAO7H by microdilution method.
The subject of test [7] is Pseudomonas aeruginosa. The test is described as follows: microbe, parasite or virus in culture. Conditions: PAO1. This is another data set of the same source.
Description: Antimicrobial activity against 0.25 ug/ml compound pre-treated Pseudomonas aeruginosa PAO1 in presence of 0.5 ug/ml of compound during plating experiment by microdilution method
Test [8] concerns Pseudomonas aeruginosa. The test is described as follows: microbe, parasite or virus in culture. The following applies: PAO1. The source holds these as a separate data set.
Description: Antimicrobial activity against 0.25 ug/ml compound pre-treated Pseudomonas aeruginosa PAO1 in presence of 0.25 ug/ml of compound during plating experiment by microdilution method
Test [9] concerns Pseudomonas aeruginosa. As to the kind of experiment: microbe, parasite or virus in culture. Conditions: PAO1. This is another data set of the same source.
Description: Antimicrobial activity against 0.12 ug/ml compound pre-treated Pseudomonas aeruginosa PAO1 in presence of 0.5 ug/ml of compound during plating experiment by microdilution method in presence of 40 ug/ml efflux-pump inhibitor PAbetaN
Test [10] relates to Pseudomonas aeruginosa. As to the kind of experiment: microbe, parasite or virus in culture. The following applies: PAO1. The source holds these as a separate data set.
Description: Antimicrobial activity against 0.12 ug/ml compound pre-treated Pseudomonas aeruginosa PAO1 in presence of 1 ug/ml of compound during plating experiment by microdilution method in presence of 40 ug/ml efflux-pump inhibitor PAbetaN
In test [11] the test system is Pseudomonas aeruginosa. As to the kind of experiment: microbe, parasite or virus in culture. Conditions: PAO1. This is another data set of the same source.
Description: Antimicrobial activity against 0.12 ug/ml compound pre-treated Pseudomonas aeruginosa PAO1 by microdilution method
Test [12] relates to Pseudomonas aeruginosa. The test is described as follows: microbe, parasite or virus in culture. Conditions: PAO1. The source holds these as a separate data set.
Description: Antimicrobial activity against 0.12 ug/ml compound pre-treated Pseudomonas aeruginosa PAO1 in presence of 0.25 ug/ml of compound during plating experiment by microdilution method
Test [13] concerns Pseudomonas aeruginosa. As to the kind of experiment: Antimicrobial activity against Pseudomonas aeruginosa PAO1 by microdilution method in presence of 40 ug/ml efflux-pump inhibitor PAbetaN. (In general: Dilution methods test growth across graded concentrations, often in twofold steps.)
Test [14] deals with Pseudomonas aeruginosa. As to the kind of experiment: microbe, parasite or virus in culture. Conditions: PAO1. This is another data set of the same source.
Description: Antimicrobial activity against 0.25 ug/ml compound pre-treated Pseudomonas aeruginosa PAO1 by microdilution method
The subject of test [15] is Pseudomonas aeruginosa. As to the kind of experiment: microbe, parasite or virus in culture. Conditions: PAO1. The source holds these as a separate data set.
Description: Antimicrobial activity against 0.12 ug/ml compound pre-treated Pseudomonas aeruginosa PAO1 by microdilution method in presence of 40 ug/ml efflux-pump inhibitor PAbetaN
In test [16] the test system is Pseudomonas aeruginosa. As to the kind of experiment: Antimicrobial activity against Pseudomonas aeruginosa PAO7H by microdilution method in presence of 40 ug/ml efflux-pump inhibitor PAbetaN.
Test [17] concerns Pseudomonas aeruginosa. The test is described as follows: microbe, parasite or virus in culture. Conditions: PAO1. The source holds these as a separate data set.
In test [18] the test system is Pseudomonas aeruginosa. The test is described as follows: microbe, parasite or virus in culture. The following applies: PAO1. This is another data set of the same source.
Description: Antimicrobial activity against 0.25 ug/ml compound pre-treated Pseudomonas aeruginosa PAO1 in presence of 1 ug/ml of compound during plating experiment by microdilution method in presence of 40 ug/ml efflux-pump inhibitor PAbetaN

Converted amounts (≈) assume the structure as drawn.

As to `O=C(O)c1cn(C2CC2)c2cc(N3CCNCC3)c(F)cc2c1=O` [CIPROFLOXACIN], the MIC amounted to 0.12 µg/mL (≈ 0.362 µM) in the test on Pseudomonas aeruginosa [1]; 0.12 µg/mL (≈ 0.362 µM) with Pseudomonas aeruginosa [2]; 0.12 µg/mL (≈ 0.362 µM) in the test with Pseudomonas aeruginosa [3]; 0.12 µg/mL (≈ 0.362 µM) in the test on Pseudomonas aeruginosa [4]; 1 µg/mL (≈ 3.02 µM) against Pseudomonas aeruginosa [5]; 1 µg/mL (≈ 3.02 µM) in the test on Pseudomonas aeruginosa [6]. In addition, the MIC is 1 µg/mL (≈ 3.02 µM) in the test on Pseudomonas aeruginosa [7]; 1 µg/mL (≈ 3.02 µM) against Pseudomonas aeruginosa [8]; 0.12 µg/mL (≈ 0.362 µM) against Pseudomonas aeruginosa [9]; 0.12 µg/mL (≈ 0.362 µM) in the test with Pseudomonas aeruginosa [10]; 1 µg/mL (≈ 3.02 µM) in the test with Pseudomonas aeruginosa [11]; 1 µg/mL (≈ 3.02 µM) against Pseudomonas aeruginosa [12]. The MIC was 0.06 µg/mL in the test on Pseudomonas aeruginosa [13]; 1 µg/mL (≈ 3.02 µM) in the test with Pseudomonas aeruginosa [14]; 0.06 µg/mL (≈ 0.181 µM) against Pseudomonas aeruginosa [15]; 0.06 µg/mL with Pseudomonas aeruginosa [16]; 0.06 µg/mL (≈ 0.181 µM) in the test on Pseudomonas aeruginosa [17]; 0.12 µg/mL (≈ 0.362 µM) with Pseudomonas aeruginosa [18].
